For assay [1], the target named is T1, RccR (PA5438) (Pseudomonas aeruginosa, UniProt Q9HTC8).
T1 construct: tetramer in crystal
Kind of assay: isothermal titration calorimetry. Format: binding.

For assay [2], the target named is T1, RccR (PA5438). Kind of assay: X-ray crystal structure of the complex, […] Å. Format: binding. As to conditions: space group I222, four monomers each with KDPG; PDB code not given.
The target in assay [3] is RccR (PA5438) (Pseudomonas aeruginosa, UniProt Q9HTC8, S185A). Kind of assay: biochemical.
Assay [4] has as its target RccR (PA5438) (Pseudomonas aeruginosa, UniProt Q9HTC8, S183A). The experiment in a line: biochemical.
Assay [5] addresses RccR (PA5438) (Pseudomonas aeruginosa, UniProt Q9HTC8, S188A). The experiment in a line: biochemical.

One compound from paper PMC10810197, “A KDPG sensor RccR governs Pseudomonas aeruginosa carbon metabolism and aminoglycoside antibiotic tolerance” (Nucleic Acids Research, 2023) can be followed below.

Broadly, the Kd is the free concentration of one partner at which half of the binding sites on the other are occupied at equilibrium, for simple one-to-one binding. A high value points to a looser complex.

T1 sequence (Q9HTC8 entry or part of it): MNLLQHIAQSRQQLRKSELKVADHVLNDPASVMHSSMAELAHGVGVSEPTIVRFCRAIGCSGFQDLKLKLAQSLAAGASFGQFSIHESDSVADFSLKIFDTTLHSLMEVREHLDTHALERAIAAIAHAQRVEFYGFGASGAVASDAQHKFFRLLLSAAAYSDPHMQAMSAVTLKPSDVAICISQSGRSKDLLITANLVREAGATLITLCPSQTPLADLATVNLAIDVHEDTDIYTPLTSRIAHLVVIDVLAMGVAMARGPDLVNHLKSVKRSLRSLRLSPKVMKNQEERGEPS
RccR (PA5438) (Pseudomonas aeruginosa, UniProt Q9HTC8, S183A), sequence (Q9HTC8 whole entry S183A): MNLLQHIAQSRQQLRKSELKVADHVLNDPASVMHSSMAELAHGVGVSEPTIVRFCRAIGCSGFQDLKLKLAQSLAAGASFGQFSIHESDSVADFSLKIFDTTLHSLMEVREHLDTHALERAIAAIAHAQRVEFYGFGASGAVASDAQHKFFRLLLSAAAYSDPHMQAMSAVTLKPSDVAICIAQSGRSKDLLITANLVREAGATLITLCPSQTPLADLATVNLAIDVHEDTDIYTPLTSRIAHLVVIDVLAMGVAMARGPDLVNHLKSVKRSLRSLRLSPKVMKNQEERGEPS
RccR (PA5438) (Pseudomonas aeruginosa, UniProt Q9HTC8, S185A), sequence (Q9HTC8 whole entry S185A): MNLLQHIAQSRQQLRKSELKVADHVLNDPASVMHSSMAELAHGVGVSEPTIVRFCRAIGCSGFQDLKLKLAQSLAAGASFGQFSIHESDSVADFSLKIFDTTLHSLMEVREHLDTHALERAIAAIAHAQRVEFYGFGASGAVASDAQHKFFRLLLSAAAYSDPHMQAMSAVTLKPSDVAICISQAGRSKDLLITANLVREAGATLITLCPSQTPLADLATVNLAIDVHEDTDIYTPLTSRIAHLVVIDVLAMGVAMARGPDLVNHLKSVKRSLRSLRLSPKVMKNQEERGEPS
RccR (PA5438) (Pseudomonas aeruginosa, UniProt Q9HTC8, S188A), sequence (Q9HTC8 whole entry S188A): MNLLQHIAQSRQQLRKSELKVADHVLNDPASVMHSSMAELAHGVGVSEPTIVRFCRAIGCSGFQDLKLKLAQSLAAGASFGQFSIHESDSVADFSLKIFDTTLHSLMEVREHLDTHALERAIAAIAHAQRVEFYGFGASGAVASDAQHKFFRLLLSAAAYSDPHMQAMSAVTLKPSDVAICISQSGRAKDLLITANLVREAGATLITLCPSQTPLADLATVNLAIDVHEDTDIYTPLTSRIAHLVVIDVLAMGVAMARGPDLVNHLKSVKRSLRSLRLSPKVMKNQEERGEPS

Turning to `O=C(O)C(=O)C[C@H](O)[C@H](O)COP(=O)(O)O` [KDPG], the Kd in assay [1] is 3.31 µM; in assay [3], 21 µM; in assay [4] it was 28.7 µM; in assay [5] it was 15.7 µM. The “X-ray crystal structure of the complex, 1.9 Å” value in assay [2] is listed as “Each monomer in this complex structure harbors a well-defined signal molecule KDPG”.
